Here are results for 40 substances from US20160319277A1, “METHODS OF IMPROVED PROTEIN PRODUCTION USING MIRNAs AND SIRNAs” (THE JOHNS HOPKINS UNIVERSITY, priority 2015, published 2016).

Read-outs that look alike come from different tables or passages of the source.

For the data set, the system named is HEK-CMV-Luc2-Hygro cells. As to the kind of experiment: High-throughput genome-wide siRNA screen and validation screen for luciferase expression. In kind it is cell-based, human. The conditions noted are these: for per_cell / VIA: Table 3; for per_cell: per cell luciferase yield relative to negative control; for VIA: viable cell density as % of negative control; for Luciferase activity (%) / Per cell luciferase yield (%) / Viable cell number (%): Table 6, polyamine pathway gene siRNAs. The procedure, abridged: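 HEK cells with CMV-driven luciferase were reverse-transfected with 0.8 pmol siRNA per well (3 per gene) via RNAiMax and grown 72 h at 37 °C. Duplicate wells read for luciferase (ONE-Glo) and viability (CellTiter-Glo). Values given as % of plate negative-control median with MAD-based z-scores; hits with ≥2 siRNAs at z>3 retested using 3 new siRNAs.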

Setting [1] is: Table 4, primary screen, 72 h, negative control = 100%.

“153 (CACUUUCCUGGGUAUUGUATT; chemistry not given here; listed as Homo sapiens) [compound 153]”: under setting [1], the “Viable cell density (%)” value is 87.831% and the “per cell luciferase yield (%)” value was found to be 171.072%.
For the setting “primary screen, 72 h”, “63 (CCUGGACAGUUUGAAGCAATT; chemistry not given here; listed as Homo sapiens) [compound 63]” yielded a per_cell of 174.9 and a VIA of 88.01.
Consider “56 (CAACGGGACUAUUAUGAUATT; chemistry not given here; listed as Homo sapiens) [compound 56]”, for which, for the setting “primary screen, 72 h”, the per_cell was determined as 163.5 and the VIA was found to be 97.39.
With “158 (CUUCGACAGUACUUCCGGATT; chemistry not given here; listed as Homo sapiens) [compound 158]”, under setting [1], the “Viable cell density (%)” value was 104.020% and the “per cell luciferase yield (%)” value stood at 161.613%.
On the same counts, the results for “211 (GGAUUACAGAAACUCCUAUTT; chemistry not given here; listed as Homo sapiens) [compound 211]” are 82.634% and 188.258%.
Take “160 (GGACCAAGCCCUAAAGGAATT; chemistry not given here; listed as Homo sapiens) [compound 160]”: under setting [1], the “Viable cell density (%)” value stood at 68.989% and the “per cell luciferase yield (%)” value is listed as 220.902%.
Turning to “55 (CAACGGGACUAUUAUGAUATT; chemistry not given here; listed as Homo sapiens) [compound 55]”, for the setting “primary screen, 72 h”, the per_cell is 163.4 and the VIA is 89.58.
Take “113 (GCAUCAGCUCACAACAAAATT; chemistry not given here; listed as Homo sapiens) [compound 113]”: under setting [1], the “Viable cell density (%)” value is given as 35.915% and the “per cell luciferase yield (%)” value is given as 409.361%.
For the substance “180 (CCACCCUACUAUGUACUGUTT; chemistry not given here; listed as Homo sapiens) [compound 180]”, under setting [1], the “Viable cell density (%)” value was 93.181% and the “per cell luciferase yield (%)” value is given as 185.763%.
On the same counts, the results for “120 (GGAUCAUGCUAAAAGGAGATT; chemistry not given here; listed as Homo sapiens) [compound 120]” are 54.945% and 311.516%.
As to “84 (GGCUGUACAUAGUCCUUUUTT; chemistry not given here; listed as Homo sapiens) [compound 84]”, under “primary screen, 72 h”, the per_cell was 238.5 and the VIA is on record as 66.39.
Under “primary screen, 72 h”, “93 (CAGCCUCACCAAGCACAAATT; chemistry not given here; listed as Homo sapiens) [compound 93]” registered a per_cell of 167.4 and a VIA of 85.87.
Regarding “112 (GUUUCAUCUGGGUUCGCUATT; chemistry not given here; listed as Homo sapiens) [compound 112]”, under setting [1], the “Viable cell density (%)” value is given as 62.659% and the “per cell luciferase yield (%)” value is 233.649%.
The corresponding values for “145 (CCAGUUCGACCUGAACAAATT; chemistry not given here; listed as Homo sapiens) [compound 145]” are 85.750% and 176.019%.
In the case of “64 (GAUCGUUUGAGAGAACAAATT; chemistry not given here; listed as Homo sapiens) [compound 64]”, where the note is “primary screen, 72 h”, the per_cell came to 210.3 and the VIA came out at 77.11.
In the case of “166 (CCAAGUCCAAUGCACCUGUTT; chemistry not given here; listed as Homo sapiens) [compound 166]”, under setting [1], the “Viable cell density (%)” value amounted to 76.798% and the “per cell luciferase yield (%)” value was determined as 186.195%.
As to “114 (GUCCUAUCACCGUAUCUUATT; chemistry not given here; listed as Homo sapiens) [compound 114]”, under setting [1], the “Viable cell density (%)” value was 55.962% and the “per cell luciferase yield (%)” value came to 266.627%.
For the setting “primary screen, 72 h”, “59 (AGAUCUUUGUCAAGGUGUATT; chemistry not given here; listed as Homo sapiens) [compound 59]” showed a per_cell of 153.4 and a VIA of 96.26.
Under “primary screen, 72 h”, “44 (CAACAGAUCAGAGAACAAATT; chemistry not given here; listed as Homo sapiens) [compound 44]” gave a per_cell of 156.4 and a VIA of 92.43.
With “212 (GAGCAGAGAUCAUAACCAATT; chemistry not given here; listed as Homo sapiens) [compound 212]”, under setting [1], the “Viable cell density (%)” value is reported as 108.211% and the “per cell luciferase yield (%)” value is 141.104%.
Turning to “57 (GAACGAGUACAGCAAUAUATT; chemistry not given here; listed as Homo sapiens) [compound 57]”, where the note is “primary screen, 72 h”, the per_cell was 140.9 and the VIA stood at 108.2.
“201 (CCCUGAAGGUUACCUCUUUTT; chemistry not given here; listed as Homo sapiens) [compound 201]”: under setting [1], the “Viable cell density (%)” value was found to be 63.690% and the “per cell luciferase yield (%)” value is 273.535%.
Where the note is “primary screen, 72 h”, “60 (GGCGAAUGCUCCUGACUAATT; chemistry not given here; listed as Homo sapiens) [compound 60]” yielded a per_cell of 157 and a VIA of 103.9.
Regarding “171 (CCCUGUUCAUUAUAAGUCUTT; chemistry not given here; listed as Homo sapiens) [compound 171]”, under setting [1], the “Viable cell density (%)” value is on record as 279.253% and the “per cell luciferase yield (%)” value is on record as 272.683%.
Take “214 (CCGUAGACUCGCUCAUCUCTT; chemistry not given here; listed as Homo sapiens) [compound 214]”: the “Luciferase activity (%)” value is recorded as 174.4%, the “Per cell luciferase yield (%)” value stood at 204.2% and the “Viable cell number (%)” value came to 85.4%.
As to “155 (GCCUUGCUCCGAACCUUCATT; chemistry not given here; listed as Homo sapiens) [compound 155]”, the “Luciferase activity (%)” value turned out to be 161.1%, the “Per cell luciferase yield (%)” value is listed as 169.9% and the “Viable cell number (%)” value was found to be 94.8%. Further, under setting [1], the “Viable cell density (%)” value is recorded as 94.839% and the “per cell luciferase yield (%)” value was 169.972%.
For the substance “123 (GGUGUAAUAAUGUCCUUUATT; chemistry not given here; listed as Homo sapiens) [compound 123]”, under setting [1], the “Viable cell density (%)” value came out at 79.386% and the “per cell luciferase yield (%)” value was determined as 188.094%.
The corresponding values for “176 (GUUGCAAACUUAUCGAGGATT; chemistry not given here; listed as Homo sapiens) [compound 176]” are 79.093% and 186.786%.
“131 (GGAGAAAGAAUCAACGGAATT; chemistry not given here; listed as Homo sapiens) [compound 131]”: under setting [1], the “Viable cell density (%)” value was found to be 70.586% and the “per cell luciferase yield (%)” value is 284.565%.
For the substance “126 (GGUGCUCUCGGUUGCACAATT; chemistry not given here; listed as Homo sapiens) [compound 126]”, under setting [1], the “Viable cell density (%)” value is 82.333% and the “per cell luciferase yield (%)” value was 187.362%.
“154 (CAACAGUACUUACCGAUGUTT; chemistry not given here; listed as Homo sapiens) [compound 154]”: under setting [1], the “Viable cell density (%)” value turned out to be 115.513% and the “per cell luciferase yield (%)” value stood at 141.760%.
“186 (CGAAACUUGUCAACGGGAATT; chemistry not given here; listed as Homo sapiens) [compound 186]”: under setting [1], the “Viable cell density (%)” value turned out to be 104.553% and the “per cell luciferase yield (%)” value was determined as 179.207%.
“117 (GGCUGUACAUAGUCCUUUUTT; chemistry not given here; listed as Homo sapiens) [compound 117]”: the “Viable cell density (%)” value came out at 66.394%. For the same substance, the “per cell luciferase yield (%)” value under setting [1] worked out at 238.463%.
For the substance “100 (GAACGAGUACAGCAAUAUATT; chemistry not given here; listed as Homo sapiens) [compound 100]”, under setting [1], the “Viable cell density (%)” value is reported as 108.214% and the “per cell luciferase yield (%)” value turned out to be 140.868%.
For the setting “primary screen, 72 h”, “66 (GCAACAGAAUCGAGCAAGATT; chemistry not given here; listed as Homo sapiens) [compound 66]” gave a per_cell of 154.3 and a VIA of 105.6.
On the same counts, the results for “85 (CUGCCGCAACAAUAAGAAATT; chemistry not given here; listed as Homo sapiens) [compound 85]” are 171.2 and 82.95.
As to “206 (GCUCCUCUGUUACCACAGATT; chemistry not given here; listed as Homo sapiens) [compound 206]”, under setting [1], the “Viable cell density (%)” value turned out to be 91.526% and the “per cell luciferase yield (%)” value was 179.268%.
With “193 (GGGACACUGUCAACCUCUATT; chemistry not given here; listed as Homo sapiens) [compound 193]”, under setting [1], the “Viable cell density (%)” value amounted to 74.811% and the “per cell luciferase yield (%)” value is 205.132%.
For “79 (AAGUCAACAUAGCCCGAAATT; chemistry not given here; listed as Homo sapiens) [compound 79]”, where the note is “primary screen, 72 h”, the per_cell turned out to be 145.7 and the VIA turned out to be 111.5.
With “224 (GCAUGUAUCUGCUUGAUAUTT; chemistry not given here; listed as Homo sapiens) [compound 224]”, the “Luciferase activity (%)” value is on record as 20.0%, the “Per cell luciferase yield (%)” value was 39.4% and the “Viable cell number (%)” value turned out to be 50.7%.
